From paper PMC10762035, “Molecular basis of human trace amine-associated receptor 1 activation” (Nature Communications, 2024)
Residue numbers refer to the chain shown, from its start. “And” between values parts separate entries of the source, which are not always exact repeats. Identical values can stand only once.

Experiments:
hTA1 C88/178S = target: T1, hTA1 C88/178S (Homo sapiens, UniProt Q96RJ0, C178S/C88S); assay: GloSensor cAMP accumulation assay, C88S/C178S double mutant; type: cell-based; details: for Normalized Luminescence Counts (N=2): log[Compound], single replicate values
T1 construct: expressed in transfected cells; host or cells: HEK293T
T1 sequence (Q96RJ0 1-339 C88S/C178S): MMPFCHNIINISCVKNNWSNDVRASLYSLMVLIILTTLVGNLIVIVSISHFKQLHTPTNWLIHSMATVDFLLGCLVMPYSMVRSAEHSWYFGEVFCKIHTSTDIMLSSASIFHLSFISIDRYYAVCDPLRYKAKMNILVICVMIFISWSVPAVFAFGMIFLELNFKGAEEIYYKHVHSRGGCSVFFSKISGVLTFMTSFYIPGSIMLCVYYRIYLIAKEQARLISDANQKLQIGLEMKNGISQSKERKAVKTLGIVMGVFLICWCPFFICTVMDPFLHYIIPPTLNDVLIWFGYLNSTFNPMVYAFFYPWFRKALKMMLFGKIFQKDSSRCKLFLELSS

hTA1 V184P = target: T2, hTA1 V184P (Homo sapiens, UniProt Q96RJ0, V184P); assay: GloSensor cAMP accumulation assay, V184P mutant; type: cell-based; details: for cAMP accumulation response, single replicate values (source data, Supplementary Figure 5): hTA1 V184P (N=2), log[Compound]
T2 construct: expressed in transfected cells; host or cells: HEK293T
T2 sequence (Q96RJ0 1-339 V184P): T1 sequence (Q96RJ0 1-339 C88S/C178S) with S88C, S178C, V184P

[1] = C88S, C178S, each row is one independent experiment, 3 replicates

Cc1c(F)cccc1[C@H]1COC(N)=N1 [Ro5263397]
Span ± SEM (Emax normalized to β-PEA) (hTA1 C88/178S; C88/178S, n=2): 98.55 ± 7.35
pEC50 ± SEM (hTA1 C88/178S; C88/178S, n=2): 8.59 ± 0.09
EC50 (hTA1 C88/178S; C88/178S, n=2, read-out: EC50): 2.55 nM
pEC50 values, Mean (hTA1 C88/178S; [1]): 8.403 and 8.782
ΔEmax values (each mutant value - WT average), Mean (hTA1 C88/178S; [1]): 4.495 and 19.1933
ΔpEC50 values (each mutant value - WT average), Mean (hTA1 C88/178S; [1]): -0.428 and -0.04873
Normalized Luminescence Counts (N=2) (hTA1 C88/178S; C88S, C178S, M = -5): 100.242 and 99.2245 and 97.2457 and 143.648 and 172.345 and 97.883
Normalized Luminescence Counts (N=2) (hTA1 C88/178S; C88S, C178S, M = -5.522): 90.9136 and 85.0903 and 89.8394 and 123.862 and 148.33 and 92.2945
Normalized Luminescence Counts (N=2) (hTA1 C88/178S; C88S, C178S, M = -6): 90.1221 and 88.8217 and 95.4931 and 103.622 and 111.174 and 99.9975
Normalized Luminescence Counts (N=2) (hTA1 C88/178S; C88S, C178S, M = -6.522): 99.5072 and 94.7581 and 94.2493 and 122.049 and 117.367 and 101.508
Normalized Luminescence Counts (N=2) (hTA1 C88/178S; C88S, C178S, M = -7): 91.3094 and 97.4719 and 93.062 and 116.159 and 110.872 and 102.263
Normalized Luminescence Counts (N=2) (hTA1 C88/178S; C88S, C178S, M = -7.522): 83.1115 and 82.2069 and 77.6274 and 88.2165 and 117.82 and 93.3518
Normalized Luminescence Counts (N=2) (hTA1 C88/178S; C88S, C178S, M = -8): 58.8572 and 57.8961 and 57.8396 and 93.8049 and 106.945 and 88.8206
Normalized Luminescence Counts (N=2) (hTA1 C88/178S; C88S, C178S, M = -8.522): 53.4862 and 36.4686 and 47.8325 and 84.7426 and 92.7477 and 67.222
Normalized Luminescence Counts (N=2) (hTA1 C88/178S; C88S, C178S, M = -9): 25.2178 and 28.61 and 25.7832 and 45.3213 and 51.816 and 46.9828
Normalized Luminescence Counts (N=2) (hTA1 C88/178S; C88S, C178S, M = -9.522): 8.822 and 11.8186 and 9.84 and 21.1551 and 21.4571 and 31.5768
Normalized Luminescence Counts (N=2) (hTA1 C88/178S; C88S, C178S, M = -10): 5.826 and 5.4299 (2×) and 35.5038 (2×) and 37.3163
Normalized Luminescence Counts (N=2) (hTA1 C88/178S; C88S, C178S, M = -10.522): 1.755 and 2.038 and 3.395 and 3.6345 and 2.124 and 3.483
Normalized Luminescence Counts (N=2) (hTA1 C88/178S; C88S, C178S, M = -11): 2.49 and 1.529 and 1.585 and 16.4728 and 32.9361 and 27.0456
Normalized Luminescence Counts (N=2) (hTA1 C88/178S; C88S, C178S, M = -11.522): 0.5677 and 1.529 and 0.7373 and 0.9158 and 1.369 and 1.973
Normalized Luminescence Counts (N=2) (hTA1 C88/178S; C88S, C178S, M = -12): 0.7939 and 1.472 and 1.1331 and 4.692 and 7.713 and 6.504
Normalized Luminescence Counts (N=2) (hTA1 C88/178S; C88S, C178S, M = -12.522): 1.698 and 0.6243 and 0.7373 and -0.4436 and 0.7648 and -1.803
Emax values, Mean (hTA1 C88/178S; C88S, C178S, normalized (β-PEA = 100), each row is one independent experiment, 3 replicates): 91.1984 and 105.897
Span ± SEM (Emax normalized to β-PEA) (hTA1 V184P; V184P, n=2): 67.49 ± 4.18
pEC50 ± SEM (hTA1 V184P; V184P, n=2): 8.72 ± 0.1
EC50 (hTA1 V184P; V184P, n=2, read-out: EC50): 1.89 nM
cAMP accumulation response, single replicate values (source data, Supplementary Figure 5) (hTA1 V184P; M = -5): 75.9826 and 54.4514 and 68.5146 and 68.2232 and 103.41 and 63.2018
cAMP accumulation response, single replicate values (source data, Supplementary Figure 5) (hTA1 V184P; M = -5.522): 60.8526 and 56.6821 and 51.6388 and 54.9916 and 88.8585 and 75.7736
cAMP accumulation response, single replicate values (source data, Supplementary Figure 5) (hTA1 V184P; M = -6): 62.1134 and 62.7923 and 57.749 and 52.2793 and 90.2146 and 61.0026
cAMP accumulation response, single replicate values (source data, Supplementary Figure 5) (hTA1 V184P; M = -6.522): 55.2273 and 58.8159 and 63.0833 and 59.17 and 90.5079 and 61.9556
cAMP accumulation response, single replicate values (source data, Supplementary Figure 5) (hTA1 V184P; M = -7): 76.2736 and 57.458 and 63.8592 and 78.4492 and 93.4034 and 75.9935
cAMP accumulation response, single replicate values (source data, Supplementary Figure 5) (hTA1 V184P; M = -7.522): 63.0833 and 60.2707 and 53.2876 and 78.6325 and 73.831 and 68.1499
cAMP accumulation response, single replicate values (source data, Supplementary Figure 5) (hTA1 V184P; M = -8): 45.7226 and 42.0371 and 33.6962 and 79.732 and 85.8896 and 81.3081
cAMP accumulation response, single replicate values (source data, Supplementary Figure 5) (hTA1 V184P; M = -8.522): 24.6764 and 22.5426 and 25.9372 and 54.0753 and 61.6257 and 60.123
cAMP accumulation response, single replicate values (source data, Supplementary Figure 5) (hTA1 V184P; M = -9): 15.8505 and 15.9475 and 14.9776 and 42.9696 and 48.944 and 40.6972
